Laboratory results: patent EP4745137A1 (Gluetacs Therapeutics (Shanghai) Co., Ltd., priority 2023, dated 2025)

Columns and labels:
WEE1 = target: T1, WEE1 (Homo sapiens, UniProt P30291+Q96SW2); assay: Western-blot assay of substrate protein degradation in hPBMCs, WEE1; assay type: cell-based; details: 24 hours of compound treatment, compounds tested at 50 nM and 500 nM (concentration of the table not stated)
T1 construct: endogenous in cells; host or cells: hPBMCs (Milecell Biotechnologies)

IKZF1 = target: T2, IKZF1 (Homo sapiens, UniProt Q13422+Q96SW2); assay: Western-blot assay of substrate protein degradation in hPBMCs, IKZF1; assay type: cell-based; details: 24 hours of compound treatment, compounds tested at 50 nM and 500 nM (concentration of the table not stated)
T2 construct: endogenous in cells; host or cells: hPBMCs (Milecell Biotechnologies)

IKZF2 = target: T3, IKZF2 (Homo sapiens, UniProt Q96SW2+Q9UKS7); assay: Western-blot assay of substrate protein degradation in hPBMCs, IKZF2; assay type: cell-based; details: 24 hours of compound treatment, compounds tested at 50 nM and 500 nM (concentration of the table not stated)
T3 construct: endogenous in cells; host or cells: hPBMCs (Milecell Biotechnologies)

IKZF3 = target: T4, IKZF3 (Homo sapiens, UniProt Q96SW2+Q9UKT9); assay: Western-blot assay of substrate protein degradation in hPBMCs, IKZF3; assay type: cell-based; details: 24 hours of compound treatment, compounds tested at 50 nM and 500 nM (concentration of the table not stated)
T4 construct: endogenous in cells; host or cells: hPBMCs (Milecell Biotechnologies)

CK1α = target: T5, CK1α (Homo sapiens, UniProt P48729+Q96SW2); assay: Western-blot assay of substrate protein degradation in hPBMCs, CK1α; assay type: cell-based; details: 24 hours of compound treatment, compounds tested at 50 nM and 500 nM (concentration of the table not stated)
T5 construct: endogenous in cells; host or cells: hPBMCs (Milecell Biotechnologies)

GSPT1 = target: T6, GSPT1 (Homo sapiens, UniProt P15170+Q96SW2); assay: Western-blot assay of substrate protein degradation in hPBMCs, GSPT1; assay type: cell-based; details: 24 hours of compound treatment, compounds tested at 50 nM and 500 nM (concentration of the table not stated)
T6 construct: endogenous in cells; host or cells: hPBMCs (Milecell Biotechnologies)

[1] = target: T7, human Cereblon WT GST-tagged protein (Homo sapiens, UniProt Q96SW2); assay: CRBN-binding affinity by HTRF (CEREBLON BINDING kit); details: HTRF inhibitory activity, CEREBLON BINDING kit; read-out: HTRF IC50
T7 construct: purchased CISBIO 64BDCRBNPEH

TMD8 = assay: Tumor cell proliferation inhibition (CellTiter-Meiluncell Luminescent Cell Viability Assay), TMD8; details: Homo sapiens, TMD8, 96 h, read-out: inhibitory activity (IC50, nM) against tumor cells proliferation, TMD8
[2] = test system: Human acute T lymphocytic leukemia cells (Molt-4); assay: Tumor cell proliferation inhibition (CellTiter-Meiluncell Luminescent Cell Viability Assay), Molt-4; details: MOLT-4, 96 h, read-out: inhibitory activity (IC50, nM) against tumor cells proliferation, Molt 4
NCI-H1975 = assay: Tumor cell proliferation inhibition (CellTiter-Meiluncell Luminescent Cell Viability Assay), NCI-H1975; details: Homo sapiens, NCI-H1975, 96 h, read-out: inhibitory activity (IC50, nM) against tumor cells proliferation, H1975
[3] = test system: Human breast cancer cells (MDA-MB-231); assay: Tumor cell proliferation inhibition (CellTiter-Meiluncell Luminescent Cell Viability Assay), MDA-MB-231; details: MDA-MB-231, 96 h, read-out: inhibitory activity (IC50, nM) against tumor cells proliferation, MDA-MB-231

T2 sequence (Q13422 whole entry): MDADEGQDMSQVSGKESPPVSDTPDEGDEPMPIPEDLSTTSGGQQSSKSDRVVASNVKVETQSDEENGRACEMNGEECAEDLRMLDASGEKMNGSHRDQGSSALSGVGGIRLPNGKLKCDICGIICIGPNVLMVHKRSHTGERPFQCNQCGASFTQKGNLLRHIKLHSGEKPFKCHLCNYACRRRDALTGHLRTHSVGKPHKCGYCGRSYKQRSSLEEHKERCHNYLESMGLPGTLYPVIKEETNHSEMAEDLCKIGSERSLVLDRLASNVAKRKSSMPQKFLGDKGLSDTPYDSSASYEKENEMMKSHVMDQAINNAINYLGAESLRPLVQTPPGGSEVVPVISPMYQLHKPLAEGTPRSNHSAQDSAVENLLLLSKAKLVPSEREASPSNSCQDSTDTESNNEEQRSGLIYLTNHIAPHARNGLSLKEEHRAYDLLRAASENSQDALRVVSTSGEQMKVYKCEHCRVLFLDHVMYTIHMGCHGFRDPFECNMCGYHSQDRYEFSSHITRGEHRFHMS
T2 sequence (Q96SW2 whole entry): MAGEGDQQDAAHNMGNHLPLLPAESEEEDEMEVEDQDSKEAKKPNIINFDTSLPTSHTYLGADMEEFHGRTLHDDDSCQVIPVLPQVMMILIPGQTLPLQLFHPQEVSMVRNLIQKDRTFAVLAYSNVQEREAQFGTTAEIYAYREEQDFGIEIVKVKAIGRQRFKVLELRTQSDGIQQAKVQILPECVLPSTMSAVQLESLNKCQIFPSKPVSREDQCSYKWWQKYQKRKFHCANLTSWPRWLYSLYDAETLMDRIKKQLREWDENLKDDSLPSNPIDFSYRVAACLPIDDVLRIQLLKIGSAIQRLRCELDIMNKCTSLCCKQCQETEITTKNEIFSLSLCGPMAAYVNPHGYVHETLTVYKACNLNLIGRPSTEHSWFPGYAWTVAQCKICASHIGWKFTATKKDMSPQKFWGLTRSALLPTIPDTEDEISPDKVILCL
T2 sequence (Q16531 whole entry partner): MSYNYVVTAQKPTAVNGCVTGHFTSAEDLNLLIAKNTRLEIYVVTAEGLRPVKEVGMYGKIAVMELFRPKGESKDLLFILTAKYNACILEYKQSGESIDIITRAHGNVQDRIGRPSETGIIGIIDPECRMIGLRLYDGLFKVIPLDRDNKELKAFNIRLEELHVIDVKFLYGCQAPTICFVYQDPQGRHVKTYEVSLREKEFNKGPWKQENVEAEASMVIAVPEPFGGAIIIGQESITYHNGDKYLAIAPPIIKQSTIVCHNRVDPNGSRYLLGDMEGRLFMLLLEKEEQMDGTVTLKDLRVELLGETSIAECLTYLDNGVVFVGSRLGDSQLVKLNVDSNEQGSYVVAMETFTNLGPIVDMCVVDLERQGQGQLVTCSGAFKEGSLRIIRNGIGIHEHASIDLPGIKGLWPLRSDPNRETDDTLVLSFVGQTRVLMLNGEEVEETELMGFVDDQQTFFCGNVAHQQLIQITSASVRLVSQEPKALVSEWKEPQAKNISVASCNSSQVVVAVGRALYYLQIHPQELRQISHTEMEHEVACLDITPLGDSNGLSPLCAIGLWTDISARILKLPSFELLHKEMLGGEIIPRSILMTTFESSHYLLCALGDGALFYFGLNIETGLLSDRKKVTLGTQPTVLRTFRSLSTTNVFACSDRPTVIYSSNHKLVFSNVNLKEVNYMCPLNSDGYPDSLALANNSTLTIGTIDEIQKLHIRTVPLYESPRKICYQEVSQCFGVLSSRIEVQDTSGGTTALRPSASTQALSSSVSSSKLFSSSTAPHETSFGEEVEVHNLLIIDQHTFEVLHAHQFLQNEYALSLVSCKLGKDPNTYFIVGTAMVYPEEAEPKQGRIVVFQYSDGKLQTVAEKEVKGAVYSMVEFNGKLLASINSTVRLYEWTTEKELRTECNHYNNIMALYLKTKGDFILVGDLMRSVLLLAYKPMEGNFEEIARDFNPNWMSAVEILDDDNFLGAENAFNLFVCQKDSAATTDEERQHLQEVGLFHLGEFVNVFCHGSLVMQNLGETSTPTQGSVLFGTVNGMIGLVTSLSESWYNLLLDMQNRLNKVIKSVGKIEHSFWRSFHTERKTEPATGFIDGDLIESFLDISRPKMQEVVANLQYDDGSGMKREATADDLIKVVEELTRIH
T5 sequence (P48729 whole entry): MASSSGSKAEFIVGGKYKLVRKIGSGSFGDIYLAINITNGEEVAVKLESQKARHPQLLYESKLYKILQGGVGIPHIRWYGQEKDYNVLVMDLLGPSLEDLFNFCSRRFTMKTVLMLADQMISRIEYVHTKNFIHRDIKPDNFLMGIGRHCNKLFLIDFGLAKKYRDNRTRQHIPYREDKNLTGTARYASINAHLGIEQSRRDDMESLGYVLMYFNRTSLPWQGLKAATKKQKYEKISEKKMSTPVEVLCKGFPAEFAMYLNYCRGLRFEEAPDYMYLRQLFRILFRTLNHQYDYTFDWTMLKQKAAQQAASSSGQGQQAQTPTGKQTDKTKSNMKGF
T5 sequence (Q96SW2 whole entry): as the sequence (Q96SW2 whole entry) above
T5 sequence (Q16531 whole entry partner): as the sequence (Q16531 whole entry partner) above
T6 sequence (P15170 whole entry): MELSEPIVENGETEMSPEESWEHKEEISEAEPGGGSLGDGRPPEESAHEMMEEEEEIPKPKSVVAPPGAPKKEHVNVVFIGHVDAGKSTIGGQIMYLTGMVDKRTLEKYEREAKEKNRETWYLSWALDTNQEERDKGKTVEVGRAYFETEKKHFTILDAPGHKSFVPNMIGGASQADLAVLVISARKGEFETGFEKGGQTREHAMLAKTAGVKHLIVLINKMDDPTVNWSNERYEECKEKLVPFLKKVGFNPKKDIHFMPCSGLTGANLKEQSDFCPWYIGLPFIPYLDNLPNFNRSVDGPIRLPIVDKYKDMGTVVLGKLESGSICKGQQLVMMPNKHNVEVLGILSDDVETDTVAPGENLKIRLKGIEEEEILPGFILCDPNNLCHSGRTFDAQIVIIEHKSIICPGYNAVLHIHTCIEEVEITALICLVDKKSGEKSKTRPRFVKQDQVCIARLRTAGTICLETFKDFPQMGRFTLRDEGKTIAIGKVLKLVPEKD
T6 sequence (Q96SW2 whole entry): as the sequence (Q96SW2 whole entry) above
T6 sequence (Q16531 whole entry partner): as the sequence (Q16531 whole entry partner) above
T1 sequence (P30291 whole entry): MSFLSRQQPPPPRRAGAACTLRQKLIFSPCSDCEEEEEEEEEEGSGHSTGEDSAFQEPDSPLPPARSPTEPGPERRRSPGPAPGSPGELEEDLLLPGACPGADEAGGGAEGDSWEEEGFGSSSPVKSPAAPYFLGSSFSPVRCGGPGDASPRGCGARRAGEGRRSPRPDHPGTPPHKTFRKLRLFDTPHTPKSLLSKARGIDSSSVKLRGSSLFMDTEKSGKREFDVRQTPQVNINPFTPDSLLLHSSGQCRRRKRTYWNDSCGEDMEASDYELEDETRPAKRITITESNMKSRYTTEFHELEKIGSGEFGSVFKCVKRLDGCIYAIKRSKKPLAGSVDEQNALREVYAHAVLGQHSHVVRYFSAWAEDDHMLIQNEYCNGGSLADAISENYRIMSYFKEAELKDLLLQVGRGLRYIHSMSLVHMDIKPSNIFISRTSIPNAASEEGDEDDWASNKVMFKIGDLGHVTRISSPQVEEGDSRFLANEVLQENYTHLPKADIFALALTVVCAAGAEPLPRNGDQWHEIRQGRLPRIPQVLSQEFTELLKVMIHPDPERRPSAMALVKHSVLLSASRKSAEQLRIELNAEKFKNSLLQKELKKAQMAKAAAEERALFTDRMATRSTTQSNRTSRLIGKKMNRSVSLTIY
T1 sequence (Q96SW2 whole entry): as the sequence (Q96SW2 whole entry) above
T1 sequence (Q16531 whole entry partner): as the sequence (Q16531 whole entry partner) above
T4 sequence (Q9UKT9 whole entry): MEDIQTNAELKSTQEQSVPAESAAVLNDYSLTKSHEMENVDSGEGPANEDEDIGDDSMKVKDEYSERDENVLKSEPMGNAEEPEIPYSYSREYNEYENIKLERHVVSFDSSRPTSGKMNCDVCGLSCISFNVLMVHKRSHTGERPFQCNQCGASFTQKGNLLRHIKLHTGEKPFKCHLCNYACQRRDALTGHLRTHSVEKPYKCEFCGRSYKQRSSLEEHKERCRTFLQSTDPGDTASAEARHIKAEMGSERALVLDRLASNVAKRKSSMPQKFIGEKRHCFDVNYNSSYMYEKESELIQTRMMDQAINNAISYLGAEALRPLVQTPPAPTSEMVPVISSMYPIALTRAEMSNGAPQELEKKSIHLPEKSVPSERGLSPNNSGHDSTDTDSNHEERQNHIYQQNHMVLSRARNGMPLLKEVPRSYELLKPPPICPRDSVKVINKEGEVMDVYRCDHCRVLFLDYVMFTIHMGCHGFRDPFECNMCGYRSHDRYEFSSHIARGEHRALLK
T4 sequence (Q96SW2 whole entry): as the sequence (Q96SW2 whole entry) above
T4 sequence (Q16531 whole entry partner): as the sequence (Q16531 whole entry partner) above
T7 sequence (Q96SW2 whole entry): as the sequence (Q96SW2 whole entry) above

| Structure (SMILES) | Weel substrate protein remaining % (WEE1) | IKZF 1 substrate protein remaining % (IKZF1) | IKZF2 substrate protein remaining % (IKZF2) | IKZF3 substrate protein remaining % (IKZF3) | CK1a substrate protein remaining % (CK1α) | GSPT1 substrate protein remaining % (GSPT1) | IC50 [1] | IC50 (TMD8) | IC50 [2] | IC50 (NCI-H1975) | IC50 [3] |
| --- | --- | --- | --- | --- | --- | --- | --- | --- | --- | --- | --- |
| O=C1CCC(N2Cc3cc(CN4CCC(N5CCc6cc(F)ccc65)CC4)ccc3C2=O)C(=O)N1 (stereo not shown) [GT-04650, 3-(5-((4-(5-fluoroindolin-1-yl)piperidin-1-yl)methyl)-1-oxoisoindolin-2-yl)piperidine-2,6-dione] | A (0% ≤ substrate protein remaining % ≤ 80%) | A (0% ≤ substrate protein remaining % ≤ 80%) | A (0% ≤ substrate protein remaining % ≤ 80%) | A (0% ≤ substrate protein remaining % ≤ 80%) | B (80%< substrate protein remaining %≤ 100%) | A (0% ≤ substrate protein remaining % ≤ 80%) | < 500 nM | 100 to 500 nM | 10 to 50 nM | 50 to 100 nM | 50 to 100 nM |
| O=C1CCC(N2Cc3cc(CN4CC=C(c5cccc6cnccc56)CC4)ccc3C2=O)C(=O)N1 (stereo not shown) [GT-04666, 3-(5-((4-(isoquinolin-5-yl)-3,6-dihydropyridin-1(2H)-yl)methyl)-1-oxoisoindolin-2-yl)piperidine-2,6-dione] | A (0% ≤ substrate protein remaining % ≤ 80%) | A (0% ≤ substrate protein remaining % ≤ 80%) | A (0% ≤ substrate protein remaining % ≤ 80%) | A (0% ≤ substrate protein remaining % ≤ 80%) | A (0% ≤ substrate protein remaining % ≤ 80%) | A (0% ≤ substrate protein remaining % ≤ 80%) | < 500 nM | 10 to 50 nM | 1 to 5 nM | 10 to 50 nM | 5 to 10 nM |
| O=C1CCC(N2Cc3cc(CN4CC=C(c5ncccc5F)CC4)ccc3C2=O)C(=O)N1 (stereo not shown) [GT-04689, 3-(5-((3-fluoro-3',6'-dihydro-[2,4'-bipyridin]-1'(2'H)-yl)methyl)-1-oxoisoindolin-2-yl)piperidine-2,6-dione] | A (0% ≤ substrate protein remaining % ≤ 80%) | A (0% ≤ substrate protein remaining % ≤ 80%) | A (0% ≤ substrate protein remaining % ≤ 80%) | A (0% ≤ substrate protein remaining % ≤ 80%) | A (0% ≤ substrate protein remaining % ≤ 80%) | A (0% ≤ substrate protein remaining % ≤ 80%) | < 500 nM | 50 to 100 nM | 5 to 10 nM | 50 to 100 nM | 10 to 50 nM |
| O=C1CCC(N2Cc3cc(CN4CCC(c5nccc(Cl)c5Cl)CC4)ccc3C2=O)C(=O)N1 (stereo not shown) [GT-04690, 3-(5-((4-(3,4-dichloropyridin-2-yl)piperidin-1-yl)methyl)-1-oxoisoindolin-2-yl)piperidine-2,6-dione] | A (0% ≤ substrate protein remaining % ≤ 80%) | A (0% ≤ substrate protein remaining % ≤ 80%) | A (0% ≤ substrate protein remaining % ≤ 80%) | A (0% ≤ substrate protein remaining % ≤ 80%) | A (0% ≤ substrate protein remaining % ≤ 80%) | A (0% ≤ substrate protein remaining % ≤ 80%) | 500 to 1000 nM | 500 to 1000 nM | 5 to 10 nM | 100 to 500 nM | 50 to 100 nM |
| O=C1CCC(N2Cc3cc(CN4CC=C(c5ncnc6sccc56)CC4)ccc3C2=O)C(=O)N1 (stereo not shown) [GT-04692, 3-(1-oxo-5-((4-(thieno[2,3-d]pyrimidin-4-yl)-3,6-dihydropyridin-1(2H)-yl)methyl)isoindolin-2-yl)piperidine-2,6-dione] | A (0% ≤ substrate protein remaining % ≤ 80%) | A (0% ≤ substrate protein remaining % ≤ 80%) | A (0% ≤ substrate protein remaining % ≤ 80%) | A (0% ≤ substrate protein remaining % ≤ 80%) | A (0% ≤ substrate protein remaining % ≤ 80%) | A (0% ≤ substrate protein remaining % ≤ 80%) | < 500 nM | 10 to 50 nM | 1 to 5 nM | 50 to 100 nM | 10 to 50 nM |
| O=C1CCC(N2Cc3cc(CN4CC(=C5CCOc6cc(F)ccc65)C4)ccc3C2=O)C(=O)N1 (stereo not shown) [GT-04701, 3-(5-((3-(7-fluorochroman-4-ylidene)azetidin-1-yl)methyl)-1-oxoisoindolin-2-yl)piperidine-2,6-dione] | A (0% ≤ substrate protein remaining % ≤ 80%) | A (0% ≤ substrate protein remaining % ≤ 80%) | A (0% ≤ substrate protein remaining % ≤ 80%) | A (0% ≤ substrate protein remaining % ≤ 80%) | A (0% ≤ substrate protein remaining % ≤ 80%) | A (0% ≤ substrate protein remaining % ≤ 80%) | < 500 nM | 50 to 100 nM | 1 to 5 nM | 50 to 100 nM | 10 to 50 nM |
| Cc1cc2c(C3=CCN(Cc4ccc5c(c4)CN(C4CCC(=O)NC4=O)C5=O)CC3)ncnc2s1 (stereo not shown) [GT-04704, 3-(5-((4-(6-methylthieno[2,3-d]pyrimidin-4-yl)-3,6-dihydropyridin-1(2H)-yl)methyl)-1-oxoisoindolin-2-yl)piperidine-2,6-dione] | A (0% ≤ substrate protein remaining % ≤ 80%) | A (0% ≤ substrate protein remaining % ≤ 80%) | A (0% ≤ substrate protein remaining % ≤ 80%) | A (0% ≤ substrate protein remaining % ≤ 80%) | A (0% ≤ substrate protein remaining % ≤ 80%) | A (0% ≤ substrate protein remaining % ≤ 80%) | < 500 nM | 10 to 50 nM | 1 to 5 nM | 10 to 50 nM | 10 to 50 nM |
| O=C1CCC(N2Cc3cc(CN4CC=C(c5ncc6ccsc6n5)CC4)ccc3C2=O)C(=O)N1 (stereo not shown) [GT-04708, 3-(1-oxo-5-((4-(thieno[2,3-d]pyrimidin-2-yl)-3,6-dihydropyridin-1(2H)-yl)methyl)isoindolin-2-yl)piperidine-2,6-dione] | A (0% ≤ substrate protein remaining % ≤ 80%) | B (80%< substrate protein remaining %≤ 100%) | B (80%< substrate protein remaining %≤ 100%) | B (80%< substrate protein remaining %≤ 100%) | A (0% ≤ substrate protein remaining % ≤ 80%) | A (0% ≤ substrate protein remaining % ≤ 80%) | 500 to 1000 nM | 10 to 50 nM | 1 to 5 nM | 10 to 50 nM | 5 to 10 nM |
